Assay results from ChEMBL document CHEMBL3046506 (2006).

Tests used:
Pyricularia oryzae [1] = test: Antifungal activity against wild type Magnaporthe oryzae Hoku-1 in rice seedlings assessed as preventive value of rice blast at 5 ug/ml systemic application at 22 to 30 degC by pot test; type: functional
Pyricularia oryzae [2] = test: Antifungal activity against wild type Magnaporthe oryzae Hoku-1 in rice seedlings assessed as preventive value of rice blast at 5 ug/ml foliar spray at 26 degC by pot test; type: functional

| SMILES | Activity (Pyricularia oryzae [1]) | Activity (Pyricularia oryzae [2]) |
| --- | --- | --- |
| CCC1(C(=O)NCCc2cnc(Cl)s2)C(C)C1(Cl)Cl (stereo not given) | 40% | 40% |
| CC1C(Cl)(Cl)C1(C)C(=O)NCCc1csc(Cl)c1 (stereo not given) | 40% | 40% |
| CC1(C)C(C(=O)NCCc2csc(Cl)c2)C1(Cl)Cl (stereo not given) | <40% | <40% |
| CC1(C)C(Cl)(Cl)C1(C)C(=O)NCCc1csc(Cl)c1 (stereo not given) | 40% | 40% |
| CC(C)C1(C(=O)NCCc2csc(Cl)c2)CC1(Cl)Cl (stereo not given) | 40% | 40% |
| CCCC1(C(=O)NCCc2csc(Cl)c2)CC1(Cl)Cl (stereo not given) | <40% | <40% |
| CC(C)(C)C(C#N)C(=O)NCCc1csc(Cl)c1 (stereo not given) | 65% | 40% |
| CC(C)(C)C(Cl)C(=O)NCCc1csc(Cl)c1 (stereo not given) | 40% | 40% |
| CC(C)(C)C(Br)C(=O)NCCc1csc(Cl)c1 (stereo not given) | 40% | 40% |
| CCC1(C(=O)NCCc2ccc(F)cc2F)C(C)C1(Cl)Cl (stereo not given) | 40% | 40% |
| CCC1(C(=O)NCCc2ccc(C(F)(F)F)cc2)C(C)C1(Cl)Cl (stereo not given) | 40% | 40% |
| CCC1(C(=O)NCCc2ccccc2Cl)C(C)C1(Cl)Cl (stereo not given) | 40% | 40% |
| CCC1(C(=O)NCCc2cccc(Cl)c2)C(C)C1(Cl)Cl (stereo not given) | 40% | 40% |
| CCC1(C(=O)NCCc2ccc(Cl)cc2Cl)C(C)C1(Cl)Cl (stereo not given) | 40% | 40% |
| CCC1(C(=O)NCCc2ccc(Cl)c(Cl)c2)C(C)C1(Cl)Cl (stereo not given) | 40% | 40% |
| CCC1(C(=O)NCCc2ccc(Br)cc2)C(C)C1(Cl)Cl (stereo not given) | <40% | <=40% |
| CCC1(C(=O)NCCc2ccc(C)cc2)C(C)C1(Cl)Cl (stereo not given) | <40% | <40% |
| CCC1(C(=O)NCCc2ccsc2)C(C)C1(Cl)Cl (stereo not given) | <=40% | 40% |
| CCC1(C(=O)NCCc2csc(Cl)c2)C(C)C1(Cl)Cl (stereo not given) | 65% | 65% |
| CCC1(C(=O)NCCc2cc(Cl)cs2)C(C)C1(Cl)Cl (stereo not given) | 40% | 40% |
| CCC1(C(=O)NCCc2ccc(Cl)s2)C(C)C1(Cl)Cl (stereo not given) | 40% | 40% |
| CCC1(C(=O)NCCc2csc(Br)c2)C(C)C1(Cl)Cl (stereo not given) | <40% | 40% |
| CCC1(C(=O)NCCc2cc(Cl)sc2Cl)C(C)C1(Cl)Cl (stereo not given) | <40% | 40% |

| SMILES | Activity (Pyricularia oryzae [1]) | Activity (Pyricularia oryzae [2]) |
| --- | --- | --- |
| CCC1(C(=O)NCCc2cc(Cl)c(Cl)s2)C(C)C1(Cl)Cl (stereo not given) | 40% | <=40% |
| CCC1(C(=O)NC(C)c2cc(Cl)cs2)C(C)C1(Cl)Cl (stereo not given) | <=40% | <=40% |
| CCC1(C(=O)NC(C)c2ccc(Cl)s2)C(C)C1(Cl)Cl (stereo not given) | <=40% | <=40% |
| CCC1(C(=O)NC(C)c2csc(Cl)c2)C(C)C1(Cl)Cl (stereo not given) | 40% | <=40% |
| CCC1(C(=O)NC(C)c2cc(Cl)c(Cl)s2)C(C)C1(Cl)Cl (stereo not given) | <=40% | 40% |
| CCC1(C(=O)NCCc2csc(Cl)n2)C(C)C1(Cl)Cl (stereo not given) | 40% | 40% |
| CCC1(C(=O)NC(C)C)C(C)C1(Cl)Cl (stereo not given) | <40% | <40% |
| CCC(C)NC(=O)C1(CC)C(C)C1(Cl)Cl (stereo not given) | <40% | <40% |
| CCC1(C(=O)NCCC(F)(F)F)C(C)C1(Cl)Cl (stereo not given) | <40% | <40% |
| CCC1(C(=O)NC(C)C2CCC2)C(C)C1(Cl)Cl (stereo not given) | <40% | <40% |
| CCC1(C(=O)NC(C)C2CCCC2)C(C)C1(Cl)Cl (stereo not given) | 40% | <40% |
| CCC1(C(=O)NC(C)C2CCCCC2)C(C)C1(Cl)Cl (stereo not given) | <40% | <40% |
| CCC1(C(=O)NC(C)C2CCCCCC2)C(C)C1(Cl)Cl (stereo not given) | <40% | <40% |
| CCC1(C(=O)Nc2ccc(Cl)cc2)C(C)C1(Cl)Cl (stereo not given) | <40% | <40% |
| CCC1(C(=O)NCc2ccc(Cl)cc2)C(C)C1(Cl)Cl (stereo not given) | 40% | <=40% |
| CCC1(C(=O)NCCc2ccc(Cl)cc2)C(C)C1(Cl)Cl (stereo not given) | 40% | 40% |
| CCC1(C(=O)NCCCc2ccc(Cl)cc2)C(C)C1(Cl)Cl (stereo not given) | 40% | 40% |
| CCC(NC(=O)C1(CC)C(C)C1(Cl)Cl)c1ccc(Cl)cc1 (stereo not given) | <40% | <=40% |
| CCC1(C(=O)NCC(C)c2ccc(Cl)cc2)C(C)C1(Cl)Cl (stereo not given) | 40% | 40% |
| CCC1(C(=O)NC(C)Cc2ccc(Cl)cc2)C(C)C1(Cl)Cl (stereo not given) | <40% | <40% |
| CCC1(C(=O)NCCc2ccc(F)cc2)C(C)C1(Cl)Cl (stereo not given) | 40% | 40% |
| CC[C@@]1(C(=O)N[C@H](C)c2ccc(Cl)cc2)[C@@H](C)C1(Cl)Cl (mixture of isomers) [CARPROPAMIDE] | >90% | >90% |
